Experimental data as given in patent publication US20030207813A1, “Retroviral protease inhibitor combinations” (priority 1995, published 2003).
Like-named read-outs stand apart in the source and are kept apart here.

Experiments:
HIV-1NL4-3 = experiment: microbe, parasite or virus in culture; format: cell-based; conditions: for EC50: Table 8, read-out: Virus Isolate (EC50 nM) NL4
Source text: (§1) RF represents the HIV-1 strain HIV-LRF and RFR represents a mixture of resistant strains obtained by selection of RF against the compound of Example 1. […] RFR2 represents a mixture of resistant strains obtained by cloning RFR by three rounds of growth at limiting dilution. […] RFRR represents a mixture of resistant strains obtained by selection of RF against the compounds of Examples 1 and 2 and then cloning by three rounds of growth at limiting dilution. […] SF162 represents the HIV-1 strain SF-162 and SF162R represents a mixture of resistant strains obtained by selection of SF162 against the compound of Example 1. […] 89-959 represents the HIV-1 strain 89-959 and 89-959R represents a mixture of resistant strains obtained by selection of 89-959 against the compound of Example 2. […] NL4 represents the HIV-1 strain HIV-1NL4-3. NL4(G48V) represents a strain having a synthetically generated site-directed mutation in the protease from glycine to valine at amino acid position number 48. NL4(I84V) represents a strain having a synthetically generated site-directed mutation in the protease from isoleucine to valine at amino acid position number 84. NL4(R8Q,M46I) represents a strain having synthetically generated site-directed mutations in the protease from arginine to glutamine at amino acid position number 8 and methionine to isoleucine at amino acid position number 46.

NL4(G48V) = experiment: Viral isolate resistance assay per Markowitz et al., NL4(G48V); format: cell-based, HIV-1; conditions: Human immunodeficiency virus 1, Table 7
Source text: as §1

NL4(I84V) = experiment: Viral isolate resistance assay per Markowitz et al., NL4(I84V); format: cell-based, HIV-1; conditions: Human immunodeficiency virus 1, Table 7
Source text: as §1

NL4(P22-538) = experiment: Viral isolate resistance assay per Markowitz et al., NL4(P22-538); format: cell-based, HIV-1; conditions: Human immunodeficiency virus 1; Table 9; selected against Example 10, 22 passages; read-out: Virus Isolate (EC50 nM) NL4(P22-538)
Source text: (§2) RF represents the HIV-1 strain HIV-LRF and RFR represents a mixture of resistant strains obtained by selection of RF against the compound of Example 1. RFR comprises a mixture of viral strains having protease genotypes of G48V (14/40 clones); G48V, V82A (18/40 clones); G48V, L90S (2/40 clones); G48V, 154T, V82A (1/40 clones); G48M (1/40 clones); G48V, Q61H (1/40 clones); V13I, G48V (1/40 clones); G48V, F53L, V82A (1/40 clones); and G48V, V82A, C95Y (1/40 clones). RFR2 represents a mixture of resistant strains obtained by cloning RFR by three rounds of growth at limiting dilution. RFR2 comprises a mixture of viral strains having protease genotypes of G48V, V82A (13/15 clones); G17E, G48V, V82A (1/15 clones); and G48V, V82A, N37D, N88D (1/15 clones). RFRR represents a mixture of resistant strains obtained by selection of RF against the compounds of Examples 1 and 2 and then cloning by three rounds of growth at limiting dilution. RFRR comprises a mixture of viral strains having protease genotypes of G48V, 154T, L63P, V82A (7/9 clones); G48V, 154T, L63P, V82A, N88S (1/9 clones); and G48V, 154T, L63P, G73M, V82A (1/9 clones). SF162 represents the HIV-1 strain SF-162 and SF162R represents a mixture of resistant strains obtained by selection of SF162 against the compound of Example 1. SF162R comprises a mixture of viral strains having protease genotypes of M461, F53L, L63P, A71V, N88D (2/3 clones); and M46I, F53L, L63P, A71V, N88D, Q92R (1/3 clones). 89-959 represents the HIV-1 strain 89-959 and 89-959R represents a mixture of resistant strains obtained by selection of 89-959 against the compound of Example 2. 89-959R comprises a mixture of viral strains having protease genotypes of N88S (4/5 clones); and D25N, T26A, D30N, D37N, R41K, G73D, R87K, N88S (1/4 clones). NL4 represents the HIV-1 strain HIV-1NL4-3. NL4(G48V) represents a strain having a synthetically generated site-directed mutation in the protease from glycine to valine at amino acid position number 48. NL4(I84V) represents a strain having a synthetically generated site-directed mutation in the protease from isoleucine to valine at amino acid position number 84. NL4(R8Q,M46I) represents a strain having synthetically generated site-directed mutations in the protease from arginine to glutamine at amino acid position number 8 and methionine to isoleucine at amino acid position number 46. NL4(P22-538) represents a mixture of resistant strains obtained by selection of HIV-1NL4-3 against the compound of Example 10 after 22 passages comprising protease genotypes M46I, L63P, A71V, V82F, I84V (4/10); M46I, L63P, V82F, I84V (3/10); and M46I, A71V, V82F, I84V (3/10). NL4(P37-538) represents resistant strains obtained by selection of HIV-1NL4-3 against the compound of Example 10 after 37 passages comprising protease genotype M46I, L63P, A71V, 184A. NL4(538/524) represents resistant strains obtained by selection of NL4(P22-538) against the compound of Example 5 after 24 passages comprising protease genotype M46I, L63P, A71V, 184A. NL4(538/P7-AG) represents a mixture of resistant strains obtained by selection of NL4(P22-538) against the compound of Example 12 after 7 passages comprising protease genotypes M46I, L63P, A71V, 184A; and V321, V82I. NL4(538/P24-AG) represents resistant strains obtained by selection of NL4(P22-538) against the compound of Example 12 after 24 passages comprising protease genotype M46I, L63P, A71V, 184A. […]

NL4(P37-538) = experiment: Viral isolate resistance assay per Markowitz et al., NL4(P37-538); format: cell-based, HIV-1; conditions: Human immunodeficiency virus 1; Table 9; selected against Example 10, 37 passages; read-out: Virus Isolate (EC50 nM) NL4(P37-538)
Source text: RF represents the HIV-1 strain HIV-LRF and RFR represents a mixture of resistant strains obtained by selection of RF against the compound of Example 1. RFR comprises a mixture of viral strains having protease genotypes of G48V (14/40 clones); G48V, V82A (18/40 clones); G48V, L90S (2/40 clones); G48V, 154T, V82A (1/40 clones); G48M (1/40 clones); G48V, Q61H (1/40 clones); V13I, G48V (1/40 clones); G48V, F53L, V82A (1/40 clones); and G48V, V82A, C95Y (1/40 clones). RFR2 represents a mixture of resistant strains obtained by cloning RFR by three rounds of growth at limiting dilution. RFR2 comprises a mixture of viral strains having protease genotypes of G48V, V82A (13/15 clones); G17E, G48V, V82A (1/15 clones); and G48V, V82A, N37D, N88D (1/15 clones). RFRR represents a mixture of resistant strains obtained by selection of RF against the compounds of Examples 1 and 2 and then cloning by three rounds of growth at limiting dilution. RFRR comprises a mixture of viral strains having protease genotypes of G48V, 154T, L63P, V82A (7/9 clones); G48V, 154T, L63P, V82A, N88S (1/9 clones); and G48V, 154T, L63P, G73M, V82A (1/9 clones). SF162 represents the HIV-1 strain SF-162 and SF162R represents a mixture of resistant strains obtained by selection of SF162 against the compound of Example 1. SF162R comprises a mixture of viral strains having protease genotypes of M461, F53L, L63P, A71V, N88D (2/3 clones); and M46I, F53L, L63P, A71V, N88D, Q92R (1/3 clones). 89-959 represents the HIV-1 strain 89-959 and 89-959R represents a mixture of resistant strains obtained by selection of 89-959 against the compound of Example 2. 89-959R comprises a mixture of viral strains having protease genotypes of N88S (4/5 clones); and D25N, T26A, D30N, D37N, R41K, G73D, R87K, N88S (1/4 clones). NL4 represents the HIV-1 strain HIV-1NL4-3. NL4(G48V) represents a strain having a synthetically generated site-directed mutation in the protease from glycine to valine at amino acid position number 48. NL4(I84V) represents a strain having a synthetically generated site-directed mutation in the protease from isoleucine to valine at amino acid position number 84. NL4(R8Q,M46I) represents a strain having synthetically generated site-directed mutations in the protease from arginine to glutamine at amino acid position number 8 and methionine to isoleucine at amino acid position number 46. NL4(P22-538) represents a mixture of resistant strains obtained by selection of HIV-1NL4-3 against the compound of Example 10 after 22 passages comprising protease genotypes M46I, L63P, A71V, V82F, I84V (4/10); M46I, L63P, V82F, I84V (3/10); and M46I, A71V, V82F, I84V (3/10). NL4(P37-538) represents resistant strains obtained by selection of HIV-1NL4-3 against the compound of Example 10 after 37 passages comprising protease genotype M46I, L63P, A71V, 184A. NL4(538/524) represents resistant strains obtained by selection of NL4(P22-538) against the compound of Example 5 after 24 passages comprising protease genotype M46I, L63P, A71V, 184A. NL4(538/P7-AG) represents a mixture of resistant strains obtained by selection of NL4(P22-538) against the compound of Example 12 after 7 passages comprising protease genotypes M46I, L63P, A71V, 184A; and V321, V82I. NL4(538/P24-AG) represents resistant strains obtained by selection of NL4(P22-538) against the compound of Example 12 after 24 passages comprising protease genotype M46I, L63P, A71V, 184A. NLA(P19-003) represents resistant strains obtained by selection of HIV-1^NL4-3 against the compound of Example 9 after 19 passages comprising protease genotype R8K, M46I. NL4(P34-003) represents resistant strains obtained by selection of HIV-1^NL4-3 against the compound of Example 9 after 34 passages comprising protease genotype R8K, M46I, L63P, A71V, L90M.
The viral isolate resistance results summarized in Tables 7-11 were generated according to the assay procedures described by Markowitz et al., Journal of Virology, vol. […]

NL4(538/524) = experiment: Viral isolate resistance assay per Markowitz et al., NL4(538/524); format: cell-based, HIV-1; conditions: Human immunodeficiency virus 1; Table 10; NL4(P22-538) selected against Example 5, 24 passages
Source text: as §2

[1] = Human immunodeficiency virus 1, NL4

CC(C)(C)NC(=O)[C@@H]1CC2CCCC[C@@H]2CN1C[C@@H](O)[C@H](Cc1ccccc1)NC(=O)[C@H](CC(N)=O)NC(=O)c1ccc2ccccc2n1 (stereo in doubt) [Example 6, N-tert-Butyl decahydro-2-[2(R)-hydroxy-4-phenyl-3(S)-[[N-(2-quinolylcarbonyl)-L-asparaginyl]amino]butyl]-(4aR,8aS)-isoquinoline-3(S)-carboxamide]
EC90 (HIV-1NL4-3; Human immunodeficiency virus 1, Table 7, EC90, NL4, read-out: Virus Isolate (EC90 nM) NL4): 30 nM
EC50 (HIV-1NL4-3; [1]): 30 nM
EC90 (NL4(G48V)): 150 nM
EC90 (NL4(I84V)): 90 nM
EC50 (NL4(P22-538)): 150 nM
EC50 (NL4(P37-538)): 2400 nM
EC50 (NL4(538/524)): 2400 nM

CC(C)(C)NC(=O)[C@@H]1CN(Cc2cccnc2)CCN1C[C@@H](O)C[C@@H](Cc1ccccc1)C(=O)N[C@H]1c2ccccc2C[C@H]1O [Example 5, N-(2(R)-Hydroxy-1(S)-indanyl)-2(R)-phenylmethyl-4(S)-hydroxy-5-(1-(4-(3-pyridylmethyl)-2(S)-N′-(t-butylcarboxamido)-piperazinyl))-pentaneamide]
EC90 (HIV-1NL4-3; Human immunodeficiency virus 1, read-out: Virus Isolate (EC90 nM) NL4): 80 nM
EC50 (HIV-1NL4-3; [1]): 80 nM
EC90 (NL4(G48V)): 160 nM
EC90 (NL4(I84V)): 640 nM
EC50 (NL4(P22-538)): 800 nM
EC50 (NL4(P37-538)): 6400 nM
EC50 (NL4(538/524)): 6400 nM
